Earlier results as cited in patent US9174839B2, “Methods and compositions for wound healing” (IMBED BIOSCIENCES, INC., priority 2008, dated 2015).

Experiments:
keratinocytes = conditions: in vitro monolayer cell cultures
fibroblasts = conditions: in vitro monolayer cell cultures
hepatocytes = conditions: in vitro
lymphocytes = conditions: in vitro
[1] = incisional wounds

In the case of silver ions, the toxicity to keratinocytes (keratinocytes) is listed as “cytotoxic effects”, the toxicity to fibroblasts (fibroblasts) is listed as “cytotoxic effects” and the “cytotoxic effects on hepatocytes” value (hepatocytes) is listed as “cytotoxic effects”. For the same compound, the “cytotoxic effects on lymphocytes” value (lymphocytes) was “cytotoxic effects”.

In the case of `CC1=C(/C=C/C(C)=C/C=C/C(C)=C/C(=O)O)C(C)(C)CCC1` [tretinoin], the fibroblastic proliferation [1] is given as “increased” and the production of collagen [1] is given as “diminished”.
